Data as given in ChEMBL document CHEMBL1201862, “PubChem BioAssay data set” (2004).
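Protocol summary: plate cells (96-well), add compound at 5 concentrations, incubate 48 h, interpolate endpoints linearly. GI50 marks 50% less growth.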 Active and inactive are the calls of the source. Cut-off read from the data, not from the text of the source: active = GI50 up to about 1.1 µM and inactive = higher.

Tests used:
Test in all cases: growth of human tumour cells (NCI), 48 h
CAKI-1 = system: CAKI-1
CCRF-CEM = system: CCRF-CEM
COLO 205 = system: COLO 205
HOP-62 = system: HOP-62
HOP-92 = system: HOP-92
HT-29 = system: HT-29
K562 = system: K562
KM12 = system: KM12
LOX IMVI = system: LOX IMVI
Malme-3M = system: Malme-3M
NCI-H23 = system: NCI-H23
NCI-H460 = system: NCI-H460
OVCAR-5 = system: OVCAR-5
RXF 393 = system: RXF 393
SF-539 = system: SF-539
SK-OV-3 = system: SK-OV-3
TK-10 = system: TK-10
EKVX = system: EKVX

Measured: GI50

COc1ccc(C2S/C(=C\c3ccc(OC)cc3OC)C(=O)N2NC(=O)Cc2ccccc2)cc1 (stereo unspecified)
inactive: CAKI-1 > 100 µM | CCRF-CEM 89.5 µM | COLO 205 > 100 µM | HOP-62 > 100 µM | HOP-92 > 100 µM | HT-29 > 100 µM | K562 98.9 µM | KM12 > 100 µM | LOX IMVI > 100 µM | Malme-3M > 100 µM | NCI-H23 > 100 µM | NCI-H460 > 100 µM | OVCAR-5 > 100 µM | RXF 393 > 100 µM | SF-539 > 100 µM | SK-OV-3 > 100 µM | TK-10 > 100 µM

O=C(NC(=O)c1cn(CCNCCO)c(=O)[nH]c1=O)OCc1ccccc1
inactive: CAKI-1 > 100 µM | CCRF-CEM > 100 µM | COLO 205 > 100 µM | EKVX > 100 µM | HOP-62 > 100 µM | HOP-92 > 100 µM | HT-29 > 100 µM | K562 > 100 µM | KM12 > 100 µM | LOX IMVI > 100 µM | Malme-3M > 100 µM | NCI-H23 > 100 µM | NCI-H460 > 100 µM | OVCAR-5 > 100 µM | RXF 393 > 100 µM | SF-539 > 100 µM | SK-OV-3 > 100 µM | TK-10 > 100 µM

COC(=O)CCC(NC(=S)N/N=C(\C)c1ccccn1)C(=O)OC (stereo unspecified)
inactive: CCRF-CEM 29.6 µM | COLO 205 30 µM | EKVX 43.6 µM | HOP-62 57.3 µM | HOP-92 41.7 µM | HT-29 > 100 µM | K562 53.7 µM | KM12 91.6 µM | LOX IMVI 44.2 µM | Malme-3M 45.4 µM | NCI-H23 > 100 µM | NCI-H460 65.8 µM | OVCAR-5 25.9 µM | RXF 393 35 µM | SF-539 85.7 µM | SK-OV-3 > 100 µM | TK-10 > 100 µM

CC1CCC(C(C)(C)c2ccccc2)C(=O)C1 (stereo unspecified)
inactive: CAKI-1 74.8 µM | CCRF-CEM > 100 µM | COLO 205 > 100 µM | EKVX > 100 µM | HOP-62 > 100 µM | HOP-92 18.7 µM | HT-29 > 100 µM | K562 > 100 µM | KM12 > 100 µM | LOX IMVI > 100 µM | Malme-3M > 100 µM | NCI-H460 > 100 µM | OVCAR-5 > 100 µM | SF-539 > 100 µM | SK-OV-3 > 100 µM | TK-10 > 100 µM

O=C1c2c(c(-c3ccccc3)c(-c3ccccc3)c(-c3ccccc3)c2-c2ccccc2)C(=O)N1c1cccc(Br)c1
inactive: CAKI-1 > 100 µM | CCRF-CEM > 100 µM | COLO 205 > 100 µM | EKVX > 100 µM | HOP-62 > 100 µM | HOP-92 > 100 µM | K562 > 100 µM | KM12 > 100 µM | LOX IMVI > 100 µM | Malme-3M > 100 µM | NCI-H23 > 100 µM | NCI-H460 > 100 µM | OVCAR-5 > 100 µM | RXF 393 > 100 µM | SF-539 > 100 µM | SK-OV-3 > 100 µM | TK-10 > 100 µM

CCN1C(=O)C(=CN)C(=O)N(CC)C1=O
inactive: CAKI-1 > 100 µM | CCRF-CEM > 100 µM | COLO 205 > 100 µM | EKVX > 100 µM | HOP-62 > 100 µM | HOP-92 38.8 µM | HT-29 > 100 µM | K562 > 100 µM | KM12 > 100 µM | LOX IMVI > 100 µM | Malme-3M > 100 µM | NCI-H23 > 100 µM | NCI-H460 > 100 µM | OVCAR-5 > 100 µM | RXF 393 > 100 µM | SF-539 > 100 µM | SK-OV-3 > 100 µM | TK-10 44.5 µM

CC(=O)N1c2ccccc2N(C(C)=O)C1c1ccc(C2N(C(C)=O)c3ccccc3N2C(C)=O)[nH]1
inactive: CAKI-1 > 100 µM | CCRF-CEM > 100 µM | COLO 205 > 100 µM | EKVX > 100 µM | HOP-62 > 100 µM | HOP-92 > 100 µM | HT-29 > 100 µM | K562 > 100 µM | KM12 > 100 µM | LOX IMVI > 100 µM | Malme-3M > 100 µM | NCI-H23 > 100 µM | NCI-H460 > 100 µM | OVCAR-5 > 100 µM | RXF 393 > 100 µM | SF-539 > 100 µM | SK-OV-3 > 100 µM | TK-10 > 100 µM
